Source: ChEMBL document CHEMBL1201862, “PubChem BioAssay data set” (2004)
The source made the active and inactive calls.

Tests used:
INS1 = experiment: INS-1E survival protection against cytokine death – cell-based, luminescence, retest, dose response (AID 449756); type: functional; settings: Rattus norvegicus;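 note: cell death triggered by IL-1 beta plus TNF-alpha plus IFN-gamma mixture; protective hits raise ATP signal compared with cytokine alone wells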
[1] = non-specific 3'UTR reporter inhibition in Clone20-Shn3RL – cell-based, Renilla luciferase, cherry-picked, counter-screen for Shn3 inhibitor project, dose response (AID 624133); type: functional
[2] = loss of viability in HepG2 cells – cell-based, CellTiter-Glo, cherry-picked, cytotoxicity control for Shn3 inhibitor project, dose response (AID 624134); type: functional
[3] = molecular target: ATP-dependent molecular chaperone HSP82 (Candida albicans (strain WO-1) (Yeast), UniProt C4YTQ8); experiment: steroid-induced GRE reporter decrease in yeast – S. cerevisiae, luminescence, Hsp90 inhibitor project, dose response (AID 2400); type: functional, cell-based;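 note: beta-galactosidase luminescence from glucocorticoid response element reporter as proxy for Hsp90 function; inhibitor potency where signal loss means Hsp90 inhibition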
Chain of ATP-dependent molecular chaperone HSP82 (C4YTQ8 whole entry): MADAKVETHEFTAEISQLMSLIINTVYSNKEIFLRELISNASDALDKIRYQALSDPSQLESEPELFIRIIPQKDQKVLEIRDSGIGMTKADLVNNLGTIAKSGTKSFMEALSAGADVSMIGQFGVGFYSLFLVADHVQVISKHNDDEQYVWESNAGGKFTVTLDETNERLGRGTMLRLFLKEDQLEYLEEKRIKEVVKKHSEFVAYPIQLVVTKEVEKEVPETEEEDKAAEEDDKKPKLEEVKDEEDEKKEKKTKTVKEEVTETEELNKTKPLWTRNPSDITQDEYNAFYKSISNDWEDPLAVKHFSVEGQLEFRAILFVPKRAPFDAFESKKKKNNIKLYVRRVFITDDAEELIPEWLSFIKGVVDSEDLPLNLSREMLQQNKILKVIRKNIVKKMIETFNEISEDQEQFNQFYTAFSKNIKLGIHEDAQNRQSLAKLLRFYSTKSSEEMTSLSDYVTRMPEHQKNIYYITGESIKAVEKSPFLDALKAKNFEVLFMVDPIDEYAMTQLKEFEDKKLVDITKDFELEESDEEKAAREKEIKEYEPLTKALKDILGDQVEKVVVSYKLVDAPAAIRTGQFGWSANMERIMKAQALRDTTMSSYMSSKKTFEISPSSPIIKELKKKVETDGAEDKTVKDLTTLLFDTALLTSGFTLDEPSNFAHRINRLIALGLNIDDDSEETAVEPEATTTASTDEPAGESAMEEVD

Nonstructural protein 1 = Nonstructural protein 1 (Influenza A virus, UniProt Q194T2); type: functional, Influenza A virus (A/California/07/2009(H1N1))
Chain of Nonstructural protein 1 (Q194T2 whole entry): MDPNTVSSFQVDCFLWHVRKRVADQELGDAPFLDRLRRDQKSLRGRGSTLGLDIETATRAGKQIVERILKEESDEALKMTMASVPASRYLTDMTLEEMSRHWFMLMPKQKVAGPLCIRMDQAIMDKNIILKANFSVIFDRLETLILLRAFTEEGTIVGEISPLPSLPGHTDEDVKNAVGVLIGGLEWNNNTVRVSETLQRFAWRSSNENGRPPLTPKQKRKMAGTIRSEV

[4] = DRD fibroblast viability loss – cell-based, non-viral oncogenic, luminescence, dose response (AID 1934); type: functional; settings: Homo sapiens
BJ [5] = experiment: growth inhibition of engineered Ras-driven BJ cells – cell-based, alamar blue fluorescence, cherrypicked samples, dose response (AID 2631); type: functional; settings: Homo sapiens;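 note: confirmatory dose-response assay in RAS-dependent BJ fibroblasts engineered with TERT, LT and ST, with cytotoxicity read by fluorescence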
BJ [6] = experiment: BJ-TERT-LT-ST fibroblast viability loss – cell-based, RAS-independent, luminescence, dose response (AID 1935); type: functional; settings: Homo sapiens;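 note: BJ fibroblasts immortalized with TERT plus LT and ST oncogenes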
BJ [7] = experiment: cells; type: functional, cell-based; settings: Homo sapiens
Jurkat = experiment: SAR Analysis of small molecule inhibitors of T-cell specific antigen receptor-induced NF-kB activation in a Jurkat cell line using a luminescence assay - Set 2. [Related pubchem assays (depositor defined):AID435003, AID435012, AID465]; type: functional, cell-based; settings: Homo sapiens
[8] = NIH-3T3 fibroblast cytotoxicity, dose response, cytotoxicity control, cell-based, fluorescence, Alamar Blue, secondary assay (AID 2327); type: functional;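 note: NIH-3T3 mouse fibroblasts cultured with fluconazole at 8 µg/mL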
cells = type: functional, cell-based
[9] = HEK-293T viability loss after treatment – luminescence, T-cell screen hits, cytotoxicity control for TCR NF-kB inhibitor project, dose response (AID 489026); type: functional, cell-based;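 note: cells exposed to compound about 14 hours before the viability readout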
Caspase-7 = Caspase-7 (Homo sapiens, UniProt P55210); experiment: caspase-7 enzyme inhibition, selectivity check – biochemical, DEVD-R110 fluorescence, cherry-pick, selectivity assay for caspase-6 inhibitor project, dose response (AID 743295); type: functional
Chain of Caspase-7 (P55210 24-198 limits assumed): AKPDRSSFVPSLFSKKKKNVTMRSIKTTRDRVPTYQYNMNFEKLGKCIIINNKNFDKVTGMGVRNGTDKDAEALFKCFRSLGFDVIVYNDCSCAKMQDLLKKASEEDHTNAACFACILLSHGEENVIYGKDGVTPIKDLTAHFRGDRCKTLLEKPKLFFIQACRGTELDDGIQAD
Chain of Caspase-7 (P55210 207-303 limits assumed): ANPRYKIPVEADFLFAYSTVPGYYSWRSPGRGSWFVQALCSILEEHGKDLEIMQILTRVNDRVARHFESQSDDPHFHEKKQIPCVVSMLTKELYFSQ

Caspase-6 = molecular target: T1, Caspase-6 (Homo sapiens, UniProt P55212); experiment: inhibition of CASP6 peptide cleavage – biochemical, VEID-R110 fluorescence, cherry-pick, dose response (AID 720632)
T1 sequence (P55212 whole entry): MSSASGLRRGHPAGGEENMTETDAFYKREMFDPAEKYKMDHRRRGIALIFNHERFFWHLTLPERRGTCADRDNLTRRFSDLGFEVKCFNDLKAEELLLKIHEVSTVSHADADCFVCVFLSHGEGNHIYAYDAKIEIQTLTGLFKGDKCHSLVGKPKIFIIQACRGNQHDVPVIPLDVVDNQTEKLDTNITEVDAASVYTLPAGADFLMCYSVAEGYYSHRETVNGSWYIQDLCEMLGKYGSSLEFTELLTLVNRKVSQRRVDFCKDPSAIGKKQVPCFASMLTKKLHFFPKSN

[10] = molecular target: T2, Histone-lysine N-methyltransferase NSD2 (Homo sapiens, UniProt O96028); type: biochemical
T2 sequence (O96028 whole entry): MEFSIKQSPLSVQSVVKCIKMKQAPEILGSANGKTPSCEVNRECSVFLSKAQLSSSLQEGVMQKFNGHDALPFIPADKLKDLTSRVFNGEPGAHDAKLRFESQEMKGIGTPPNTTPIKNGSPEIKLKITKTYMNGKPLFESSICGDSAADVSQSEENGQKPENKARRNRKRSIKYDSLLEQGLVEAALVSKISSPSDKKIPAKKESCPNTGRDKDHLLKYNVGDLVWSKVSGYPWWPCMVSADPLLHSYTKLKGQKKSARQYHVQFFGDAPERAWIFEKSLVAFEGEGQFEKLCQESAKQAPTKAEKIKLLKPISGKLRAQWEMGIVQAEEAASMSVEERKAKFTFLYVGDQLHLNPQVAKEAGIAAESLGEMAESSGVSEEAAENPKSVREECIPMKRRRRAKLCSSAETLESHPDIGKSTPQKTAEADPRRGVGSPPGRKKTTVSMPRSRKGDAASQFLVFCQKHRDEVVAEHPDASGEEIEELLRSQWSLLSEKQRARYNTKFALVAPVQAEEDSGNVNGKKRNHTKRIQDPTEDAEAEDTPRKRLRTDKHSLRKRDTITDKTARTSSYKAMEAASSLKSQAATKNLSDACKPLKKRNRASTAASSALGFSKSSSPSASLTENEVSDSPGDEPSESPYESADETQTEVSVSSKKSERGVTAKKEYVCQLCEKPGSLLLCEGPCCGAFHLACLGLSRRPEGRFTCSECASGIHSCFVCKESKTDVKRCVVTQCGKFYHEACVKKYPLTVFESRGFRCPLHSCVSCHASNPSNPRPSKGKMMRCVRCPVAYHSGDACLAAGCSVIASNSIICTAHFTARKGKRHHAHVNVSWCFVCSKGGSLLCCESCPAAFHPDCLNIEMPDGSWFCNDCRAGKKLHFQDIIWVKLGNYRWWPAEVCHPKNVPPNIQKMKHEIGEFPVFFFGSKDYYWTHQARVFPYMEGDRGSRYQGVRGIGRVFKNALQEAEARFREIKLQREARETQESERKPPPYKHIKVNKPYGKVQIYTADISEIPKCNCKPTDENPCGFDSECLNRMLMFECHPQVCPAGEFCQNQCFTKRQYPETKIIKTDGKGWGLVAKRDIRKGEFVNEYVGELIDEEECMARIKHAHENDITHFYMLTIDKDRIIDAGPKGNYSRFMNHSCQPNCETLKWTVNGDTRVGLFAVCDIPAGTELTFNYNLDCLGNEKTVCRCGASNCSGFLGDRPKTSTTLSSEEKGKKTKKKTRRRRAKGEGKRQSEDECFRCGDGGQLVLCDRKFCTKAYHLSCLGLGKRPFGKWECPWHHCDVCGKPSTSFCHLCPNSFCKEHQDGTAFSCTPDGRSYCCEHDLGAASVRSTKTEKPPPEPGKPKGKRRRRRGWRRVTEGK

Structure (SMILES) | AC50 (INS1) | AC50 [1] | AC50 [2] | EC50 [3] | IC50 (Nonstructural protein 1) | EC50 [4] | EC50 (BJ [5]) | EC50 (BJ [6]) | EC50 (BJ [7]) | IC50 (Jurkat) | EC50 [8] | EC50 (cells) | IC50 [9] | AC50 (Caspase-7) | AC50 (Caspase-6) | AC50 [10]
CCCCC(=O)NC(c1ccc(N(C)C)cc1)c1ccc2cccnc2c1O (stereo unspecified) | 0.626 µM (active) | > 70 µM (inactive) | 2.47 µM (active) | > 160 µM (inactive) | 24.9 µM (active) | 2.51 µM (active) | 0.465 µM (active) | 3.17 µM (inconclusive) | 3.12 µM (active) | 1.7 µM (active) | 28.4 µM (inconclusive) | > 350 µM (not active) | > 80 µM (inactive) | – | – | –
CN(CC(=O)Nc1ccccc1Cl)C(=O)COC(=O)c1ccc([N+](=O)[O-])s1 | – | – | – | – | – | – | – | – | – | – | – | – | – | 20.6 µM (active) | 4.3 µM (active) | 8.27 µM (active)
